Tests used:
[1] = tested on: H. contortus moxidectin-resistant strain (MOF14); assay: Dose titration to establish LD50 against moxidectin resistant H. contortus in the jird; type: in vivo, Haemonchus contortus; conditions: jirds, oral, treated day 10 after inoculation, probit analysis
Protocol: (§1) Jirds, which are fed on a standard commercial ration to which 0.02% hydrocortisone has been added 5 days prior to infection, are inoculated with 1000 exsheathed L3 H. contortus. On day 10 after inoculation, the jirds are treated with either water or various doses of moxidectin or ivermectin orally. Each treatment group contains 6 jirds. Probit analyses are used to estimate LD50 levels for each anthelmintic against each strain.

[2] = tested on: H. contortus ivermectin resistant strain (ACR); conditions: ACR after twelve generations of ivermectin selection
[3] = tested on: H. contortus moxidectin-resistant strain (MOF14); assay: Effect of verapamil on efficacy of moxidectin and ivermectin against moxidectin-resistant H. contortus in jirds (Example 8); type: in vivo, Haemonchus contortus; parameters: key to SIGNIFICANCE AT P <0.05: A: Different letters indicate the mean worm counts are statistically different; B: Different letters indicate the mean worm counts are statistically different; C: Different letters indicate the mean worm counts are statistically different; conditions: for SIGNIFICANCE AT P <0.05: MOF14 in jirds, mean worm counts, IVM (±VRP) not compared with MOX (±VRP)
[4] = tested on: mice with deletion of mdr1a; conditions: mice with deletion of mdr1a versus normal mice; cited from earlier work
[5] = tested on: H. contortus susceptible strain (PF14); assay: Dose titration to establish LD50 against susceptible H. contortus in the jird; type: in vivo, Haemonchus contortus; conditions: jirds, oral, treated day 10 after inoculation, probit analysis
Protocol: as §1

[6] = tested on: H. contortus ivermectin resistant strain (MFR); conditions: MFR selected over seventeen generations of ivermectin selection; cited from earlier work
[7] = tested on: H. contortus susceptible strain (PF14); assay: Efficacy of verapamil with or without ivermectin against susceptible H. contortus in jirds (Example 7); type: in vivo, Haemonchus contortus
Protocol: as §1
(§2) Verapamil is given concomitantly with ivermectin by the oral route.

[8] = tested on: H. contortus moxidectin-resistant strain (MOF14); assay: Efficacy of verapamil with or without ivermectin against moxidectin resistant H. contortus in jirds (Example 7); type: in vivo, Haemonchus contortus
Protocol: as §1, §2

[9] = verapamil 20 mg/kg, resistant worms, jirds (Example 8)

Row | Compound | estimated LD50 [1] [mg/kg] | resistance at the ED95 compared with ACS [2] [×] | SIGNIFICANCE AT P <0.05 [3] | sensitivity to ivermectin relative to normal mice [4] | estimated LD50 [5] [mg/kg] | resistance at the ED95 compared with MFS [6] [×] | effect of verapamil on the efficacy of moxidectin [3, 9] | increase in efficacy when verapamil is coadministered with ivermectin [3, 9] | significance of worm counts ([7]; susceptible strain PF14 in jirds, VRP 20 mg/kg, IVM 0.024 mg/kg, oral) | effect of verapamil alone on worm counts ([7]; susceptible strain, any of the dose rates used (20 to 80 mg/kg), jirds) | significance of worm counts ([8]; MOX-resistant strain MOF14 in jirds, VRP 20 mg/kg, IVM 0.046 mg/kg, oral) | effect of verapamil alone on worm counts ([8]; moxidectin resistant strain, any of the dose rates used (20 to 80 mg/kg), jirds) | effect of verapamil on the efficacy of ivermectin ([8]; verapamil 20 mg/kg, moxidectin resistant worms, jirds (Example 7))
1 | 22,23-dihydroavermectin B1 [ivermectin] | 0.046 | 6.3 | B | 50-100 times | 0.024 | 10 | – | – | – | – | – | – | –
2 | COc1ccc(CCN(C)CCCC(C#N)(c2ccc(OC)c(OC)c2)C(C)C)cc1OC (centres unmarked) [verapamil] | – | – | A | – | – | – | significantly increases the efficacy of moxidectin | not significant | n.s. | no significant effect on worm counts | n.s. | no significant effect on worm counts | significantly enhances the efficacy of ivermectin
3 | CO/N=C1\C[C@]2(C[C@@H]3C[C@@H](C/C=C(\C)C[C@@H](C)/C=C/C=C4\CO[C@@H]5[C@H](O)C(C)=C[C@@H](C(=O)O3)[C@]45O)O2)O[C@H](/C(C)=C/C(C)C)[C@H]1C [moxidectin, 23-(O-methyloxime)-LL-F28249α] | 0.017 | – | B | – | 0.010 | – | – | – | – | – | – | – | –

— patent US6593087B2, “Methods for detecting and reversing resistance to macrocyclic lactone compounds” (priority 1997, dated 2003)
